Results taken from PMC6208650.

Experiment: on-resin lactamisation, Asp side-chain COOH (C-terminal residue, anchored via Rink amide) + alpha-NH2 of N-terminal Dap(Boc); HATU/DIEA 1.05:2.1 equiv, overnight; then TFA cleavage
Conditions: NMP, 57.0 mM; for ring closure, product found: scale: 1 = cyclic product is largest ESI-MS signal, 0 = linear; for ring closure, conversion by HPLC: scale: % crude HPLC purity, 320 nm area of tallest peak or peak cluster
[1] = from CC(C)(C)OC(=O)NC[C@H](N)C(=O)N[C@@H](CNC(=O)c1cnc2ccccc2n1)C(=O)N[C@@H](CNC(=O)c1cnc2ccccc2n1)C(=O)NCC(=O)NCC(=O)N[C@@H](CNC(=O)c1cnc2ccccc2n1)C(=O)N[C@@H](CC(=O)O)C(N)=O, 22-membered ring
[2] = from CC(C)(C)OC(=O)NC[C@H](N)C(=O)N[C@@H](CNC(=O)c1cnc2ccccc2n1)C(=O)NCC(=O)NCC(=O)NCC(=O)N[C@@H](CNC(=O)c1cnc2ccccc2n1)C(=O)N[C@@H](CC(=O)O)C(N)=O, 22-membered ring
[3] = from CC(C)(C)OC(=O)NC[C@H](N)C(=O)NCC(=O)NCC(=O)N[C@@H](CNC(=O)c1cnc2ccccc2n1)C(=O)NCC(=O)N[C@@H](CNC(=O)c1cnc2ccccc2n1)C(=O)N[C@@H](CC(=O)O)C(N)=O, 22-membered ring
[4] = from CC(C)(C)OC(=O)NC[C@H](N)C(=O)NCC(=O)N[C@@H](CNC(=O)c1cnc2ccccc2n1)C(=O)NCC(=O)N[C@@H](CNC(=O)c1cnc2ccccc2n1)C(=O)NCC(=O)N[C@@H](CC(=O)O)C(N)=O, 22-membered ring
[5] = from CC(C)(C)OC(=O)NC[C@H](N)C(=O)N[C@@H](CNC(=O)c1cnc2ccccc2n1)C(=O)NCC(=O)NCC(=O)N[C@@H](CNC(=O)c1cnc2ccccc2n1)C(=O)NCC(=O)N[C@@H](CC(=O)O)C(N)=O, 22-membered ring
[6] = from CC(C)(C)OC(=O)NC[C@H](N)C(=O)NCC(=O)N[C@@H](CNC(=O)c1cnc2ccccc2n1)C(=O)NCC(=O)NCC(=O)N[C@@H](CNC(=O)c1cnc2ccccc2n1)C(=O)N[C@@H](CC(=O)O)C(N)=O, 22-membered ring
[7] = from CC(C)(C)OC(=O)NC[C@H](N)C(=O)N[C@@H](CNC(=O)c1cnc2ccccc2n1)C(=O)N[C@@H](CNC(=O)c1cnc2ccccc2n1)C(=O)N[C@@H](CNC(=O)c1cnc2ccccc2n1)C(=O)NCC(=O)NCC(=O)N[C@@H](CC(=O)O)C(N)=O, 22-membered ring
[8] = from CC(C)(C)OC(=O)NC[C@H](N)C(=O)NCC(=O)NCC(=O)N[C@@H](CNC(=O)c1cnc2ccccc2n1)C(=O)N[C@@H](CNC(=O)c1cnc2ccccc2n1)C(=O)N[C@@H](CNC(=O)c1cnc2ccccc2n1)C(=O)N[C@@H](CC(=O)O)C(N)=O, 22-membered ring
[9] = from CC(C)(C)OC(=O)NC[C@H](N)C(=O)NCC(=O)N[C@@H](CNC(=O)c1cnc2ccccc2n1)C(=O)NCC(=O)N[C@@H](CNC(=O)c1cnc2ccccc2n1)C(=O)N[C@@H](CNC(=O)c1cnc2ccccc2n1)C(=O)N[C@@H](CC(=O)O)C(N)=O, 22-membered ring
[10] = from CC(C)(C)OC(=O)NC[C@H](N)C(=O)NCC(=O)NCC(=O)NCC(=O)N[C@@H](CNC(=O)c1cnc2ccccc2n1)C(=O)N[C@@H](CNC(=O)c1cnc2ccccc2n1)C(=O)N[C@@H](CC(=O)O)C(N)=O, 22-membered ring

**Q.** For `NC[C@@H]1NC(=O)C[C@@H](C(N)=O)NC(=O)[C@H](CNC(=O)c2cnc3ccccc3n2)NC(=O)CNC(=O)CNC(=O)[C@H](CNC(=O)c2cnc3ccccc3n2)NC(=O)[C@H](CNC(=O)c2cnc3ccccc3n2)NC1=O`, which ring closure, product found [1] is on record?
**A.** The ring closure, product found was 1.

**Q.** What about the ring closure, conversion by HPLC [1] of the same compound?
**A.** The ring closure, conversion by HPLC was 48.

**Q.** With `NC[C@@H]1NC(=O)C[C@@H](C(N)=O)NC(=O)[C@H](CNC(=O)c2cnc3ccccc3n2)NC(=O)CNC(=O)CNC(=O)CNC(=O)[C@H](CNC(=O)c2cnc3ccccc3n2)NC1=O` as the compound, how does the ring closure, product found [2] read?
**A.** Its ring closure, product found is 1.

**Q.** And the ring closure, conversion by HPLC [2]?
**A.** Its ring closure, conversion by HPLC is 64.

**Q.** What does the source list for `NC[C@@H]1NC(=O)C[C@@H](C(N)=O)NC(=O)[C@H](CNC(=O)c2cnc3ccccc3n2)NC(=O)CNC(=O)[C@H](CNC(=O)c2cnc3ccccc3n2)NC(=O)CNC(=O)CNC1=O`?
**A.** ring closure, product found [3]: 1; ring closure, conversion by HPLC [3]: 76

**Q.** For `NC[C@@H]1NC(=O)C[C@@H](C(N)=O)NC(=O)CNC(=O)[C@H](CNC(=O)c2cnc3ccccc3n2)NC(=O)CNC(=O)[C@H](CNC(=O)c2cnc3ccccc3n2)NC(=O)CNC1=O`, which ring closure, product found [4] is on record?
**A.** Its ring closure, product found is 1.

**Q.** What about the ring closure, conversion by HPLC [4] of the same compound?
**A.** The ring closure, conversion by HPLC was 79.

**Q.** Which results are given for `NC[C@@H]1NC(=O)C[C@@H](C(N)=O)NC(=O)CNC(=O)[C@H](CNC(=O)c2cnc3ccccc3n2)NC(=O)CNC(=O)CNC(=O)[C@H](CNC(=O)c2cnc3ccccc3n2)NC1=O`?
**A.** ring closure, product found [5]: 1; ring closure, conversion by HPLC [5]: 53

**Q.** With `NC[C@@H]1NC(=O)C[C@@H](C(N)=O)NC(=O)[C@H](CNC(=O)c2cnc3ccccc3n2)NC(=O)CNC(=O)CNC(=O)[C@H](CNC(=O)c2cnc3ccccc3n2)NC(=O)CNC1=O` as the compound, how does the ring closure, product found [6] read?
**A.** Its ring closure, product found is 1.

**Q.** And the ring closure, conversion by HPLC [6]?
**A.** The ring closure, conversion by HPLC was 56.

**Q.** For `NC[C@@H]1NC(=O)C[C@@H](C(N)=O)NC(=O)CNC(=O)CNC(=O)[C@H](CNC(=O)c2cnc3ccccc3n2)NC(=O)[C@H](CNC(=O)c2cnc3ccccc3n2)NC(=O)[C@H](CNC(=O)c2cnc3ccccc3n2)NC1=O`, which ring closure, product found [7] is on record?
**A.** The ring closure, product found was 1.

**Q.** And the ring closure, conversion by HPLC [7]?
**A.** Its ring closure, conversion by HPLC is 25.

**Q.** Which ring closure, product found [8] does the source give for `NC[C@@H]1NC(=O)C[C@@H](C(N)=O)NC(=O)[C@H](CNC(=O)c2cnc3ccccc3n2)NC(=O)[C@H](CNC(=O)c2cnc3ccccc3n2)NC(=O)[C@H](CNC(=O)c2cnc3ccccc3n2)NC(=O)CNC(=O)CNC1=O` here?
**A.** Its ring closure, product found is 0.

**Q.** What about the ring closure, conversion by HPLC [8] of the same compound?
**A.** Its ring closure, conversion by HPLC is under 48.

**Q.** With `NC[C@@H]1NC(=O)C[C@@H](C(N)=O)NC(=O)[C@H](CNC(=O)c2cnc3ccccc3n2)NC(=O)[C@H](CNC(=O)c2cnc3ccccc3n2)NC(=O)CNC(=O)[C@H](CNC(=O)c2cnc3ccccc3n2)NC(=O)CNC1=O` as the compound, how does the ring closure, product found [9] read?
**A.** The ring closure, product found was 0.

**Q.** What about the ring closure, conversion by HPLC [9] of the same compound?
**A.** The ring closure, conversion by HPLC was under 39.

**Q.** With `NC[C@@H]1NC(=O)C[C@@H](C(N)=O)NC(=O)CNC(=O)[C@H](CNC(=O)c2cnc3ccccc3n2)NC(=O)CNC(=O)[C@H](CNC(=O)c2cnc3ccccc3n2)NC1=O` [H-Dap(Boc)-Dap(Qxc)-Gly-Dap(Qxc)-Gly-Asp(OH)-NH-Rink resin] as the compound, how does the ring closure, product found (from CC(C)(C)OC(=O)NC[C@H](N)C(=O)N[C@@H](CNC(=O)c1cnc2ccccc2n1)C(=O)NCC(=O)N[C@@H](CNC(=O)c1cnc2ccccc2n1)C(=O)NCC(=O)N[C@@H](CC(=O)O)C(N)=O, 19-membered ring) read?
**A.** The ring closure, product found was 1.

**Q.** Which ring closure, product found [10] does the source give for `NC[C@@H]1NC(=O)C[C@@H](C(N)=O)NC(=O)[C@H](CNC(=O)c2cnc3ccccc3n2)NC(=O)[C@H](CNC(=O)c2cnc3ccccc3n2)NC(=O)CNC(=O)CNC(=O)CNC1=O` here?
**A.** Its ring closure, product found is 1.

**Q.** And the ring closure, conversion by HPLC [10]?
**A.** The ring closure, conversion by HPLC was 75.
